Results taken from patent US4255435A, “Triazole compounds” (priority 1980, dated 1981).
≈ marks a conversion by molar mass, not a printed value.

Experiments:
Type in all cases: in vivo
[1] = test system: eggs of the cabbage root fly (Erioischia brassicae); experiment: Egg hatch of cabbage root fly eggs in test solution; settings: Table 4; eggs stored six days, egg hatch counted, two replicates; 8640 min
From the text: This example illustrates the activity of compounds of the invention against the eggs of the cabbage root fly (Erioischia brassicae).
The eggs were then stored for six days and the egg hatch then counted.

aphid Megoura viciae = experiment: Aphids on sprayed broad bean plants; settings: Table 6; sprayed infested broad bean plants, 24 hours
Description: Broad bean plants 3 to 5 cm. high were infested with aphids and then sprayed with an aqueous dispersion containing varying concentrations of test compound. Each plant was kept under a lamp glass for 24 hours and then examined. In this way an LD50 value for the compounds was calculated.

[2] = test system: larvae of the diamond back moth (Plutella maculipennis); experiment: Mortality of larvae of the diamond back moth on treated cabbage leaf; settings: for ACTIVITY LD50: Table 1, cabbage leaf dipped in test solution, mortality after 24 + 24 hours, two replicates; for ACTIVITY LD50 / Plutella maculipennis LD50 values: 2880 min; for Plutella maculipennis LD50 values: Table 2, comparative 1,2,4-triazoles, method of Example 9; for LC50: Plutella, 48 h, read-out: Plutella maculipennis LD50 values
Description: (§1) Ten larvae were placed in a tube together with a square inch of cabbage leaf which had been dipped in the test solution and allowed to dry. After twenty-four hours untreated cabbage was added for food and after a further twenty-four hours an assessment was made of the mortality of the larvae.
Two replicates were carried out for each test compound and test solutions of varying concentrations employed so that an LD50 value could be calculated.

[3] = test system: larvae of the codling moth (Cydia pomonella); experiment: Codling moth larvae on sprayed apple (number of strikes); settings: Table 5, after five days, two replicates, 7200 min
From the text: This example illustrates the activity of compounds of the invention against the larvae of the codling moth (Cydia pomonella).
An apple sprayed with test solution was allowed to dry and a perspex ring of 1 inch diameter was attached to the apple. Ten larvae were then placed on the apple surface and contained within the ring by means of a muslin covering. After five days an assessment of mortality was made by counting the number of strikes (i.e. the number of entry holes) made by the larvae.

[4] = test system: nematode Meloidogyne incognita incognita; experiment: Root knots of tomato plants in nematode-infested treated soil; settings: 100 parts per million per unit volume of soil, 30° C., ten days; untreated controls average more than 20 knots
Description: This example illustrates the activity of compounds of the invention against the nematode Meloidogyne incognita incognita.
Small tomato plants were transferred to containers with infested soil. Sufficient test compound to give a concentration of 100 parts per million per unit volume of soil was poured onto the soil and the containers suspended in warm water at 30° C.
After ten days the plants were knocked out of the containers and the roots washed clean, the number of knots being noted. The latter was an indication of activity and a low score indicated high activity.

[5] = test system: larvae of the cabbage white butterfly (Pieris brassicae); experiment: Mortality of larvae of the cabbage white butterfly on treated cabbage leaf; settings: Table 3; cabbage leaf dipped in test solution, mortality after 24 + 24 hours, two replicates; 2880 min
Description: This example illustrates the activity of compounds of the invention against larvae of the cabbage white butterfly (Pieris brassicae).
as §1

Compound: 1(2)-N,N-dimethylcarbamoyl-3-isopropyl-5-(2-bromoallylthio)-1,2,4-triazole [methyl methyl isopropyl 2-bromoallyl]
- ACTIVITY LD50 [1]: 0.9 p.p.m.

Compound: 1(2)-N,N-dimethylcarbamoyl-3-isopropyl-5-(2-chloroallylthio)-1,2,4-triazole [methyl methyl isopropyl 2-chloroallyl]
- ACTIVITY LD50 (aphid Megoura viciae): 1.2 p.p.m.
- ACTIVITY LD50 [1]: 0.27 p.p.m.

Compound: 1(2)-N,N-dimethylcarbamoyl-3-isopropyl-5-ethylthio-1,2,4-triazole [methyl methyl isopropyl ethyl]
- ACTIVITY LD50 [2]: 140 p.p.m.
- ACTIVITY LD50 [3]: < 10 p.p.m.

Compound: 1(2)-N,N-dimethylcarbamoyl-3-isopropyl-5-propylthio-1,2,4-triazole [methyl methyl isopropyl propyl]
- ACTIVITY LD50 [2]: 220 p.p.m.
- ACTIVITY LD50 (aphid Megoura viciae): 1.6 p.p.m.
- ACTIVITY LD50 [1]: 0.57 p.p.m.
- ACTIVITY LD50 [3]: < 10 p.p.m.

Compound: 1(2)-N,N-dimethylcarbamoyl-3-isopropyl-5-vinylthio-1,2,4-triazole [methyl methyl isopropyl vinyl]
- ACTIVITY LD50 [2]: < 25 p.p.m.

Compound: 1(2)-N,N-dimethylcarbamoyl-3-s-butyl-5-(2-chloroallylthio)-1,2,4-triazole [methyl methyl s-butyl 2-chloroallyl]
- ACTIVITY LD50 [1]: 0.8 p.p.m.

Compound: 1(2)-N,N-dimethylcarbamoyl-3-s-butyl-5-ethylthio-1,2,4-triazole [methyl methyl s-butyl ethyl]
- ACTIVITY LD50 [2]: 220 p.p.m.
- ACTIVITY LD50 (aphid Megoura viciae): 0.66 p.p.m.
- ACTIVITY LD50 [3]: 18 p.p.m.

Compound: 1(2)-N,N-dimethylcarbamoyl-3-s-butyl-5-methylthio-1,2,4-triazole [methyl methyl s-butyl methyl]
- ACTIVITY LD50 [2]: 140 p.p.m.
- ACTIVITY LD50 (aphid Megoura viciae): 0.32 p.p.m.
- ACTIVITY LD50 [3]: 14 p.p.m.

Compound: 1(2)-N,N-dimethylcarbamoyl-3-s-butyl-5-prop-2-ynylthio-1,2,4-triazole [methyl methyl s-butyl prop-2-ynyl]
- ACTIVITY LD50 [2]: 270 p.p.m.

Compound: 1(2)-N,N-dimethylcarbamoyl-3-s-butyl-5-propylthio-1,2,4-triazole [methyl methyl s-butyl propyl]
- ACTIVITY LD50 [2]: 320 p.p.m.
- ACTIVITY LD50 (aphid Megoura viciae): 0.86 p.p.m.
- ACTIVITY LD50 [3]: 10 p.p.m.

Compound: 1(2)-N,N-dimethylcarbamoyl-3-s-butyl-5-vinylthio-1,2,4-triazole [methyl methyl s-butyl vinyl]
- ACTIVITY LD50 [2]: 160 p.p.m.

Compound: 1(2)-N,N-dimethylcarbamoyl-3-t-butyl-5-ethylthio-1,2,4-triazole [methyl methyl t-butyl ethyl]
- ACTIVITY LD50 (aphid Megoura viciae): 0.71 p.p.m.
- ACTIVITY LD50 [3]: 24 p.p.m.
- number of knots on roots [4]: ≤ 2 knots

Compound: 1(2)-N,N-dimethylcarbamoyl-3-t-butyl-5-vinylthio-1,2,4-triazole [methyl methyl t-butyl vinyl]
- ACTIVITY LD50 [2]: 160 p.p.m.
- ACTIVITY LD50 (aphid Megoura viciae): 0.61 p.p.m.
- number of knots on roots [4]: ≤ 2 knots

Compound: 1(2)-N-ethyl-N-methylcarbamoyl-3-t-butyl-5-prop-2-ynylthio-1,2,4-triazole [ethyl methyl t-butyl prop-2-ynyl]
- ACTIVITY LD50 [2]: 68 p.p.m.

Compound: 1(2)-N-methyl-N-n-butylcarbamoyl-3-methylthio-5-methyl-1,2,4-triazole
- Plutella maculipennis LD50 values [2]: > 5000 p.p.m.

Compound: 1(2)-diallylcarbamoyl-3-ethylthio-5-methyl-1,2,4-triazole
- Plutella maculipennis LD50 values [2]: > 5000 p.p.m.

Compound: 1(2)-diethylcarbamoyl-3-methylthio-5-methyl-1,2,4-triazole
- Plutella maculipennis LD50 values [2]: > 5000 p.p.m.

Compound: 1(2)-dimethlcarbamoyl-3-ethylthio-5-methyl-1,2,4-triazole
- Plutella maculipennis LD50 values [2]: 1600 p.p.m.

Compound: 1(2)-pyrrolidinocarbonyl-3-methylthio-5-methyl-1,2,4-triazole
- Plutella maculipennis LD50 values [2]: > 5000 p.p.m.

Compound: 2(2)-dimethylthiocarbamoyl-3-methylthio-5-methyl-1,2,4-triazole
- Plutella maculipennis LD50 values [2]: > 5000 p.p.m.

Compound: CC1CCN(C(=O)n2cncn2)CC1 [1-(4-methylpiperidinocarbonyl)-1,2,4-triazole]
- LC50 [2]: > 5000 µg/mL

Compound: CCSc1ncn(C(=O)N(CC#N)CC#N)n1 [1-di(cyanomethyl)carbamoyl-3-ethylthio-1,2,4-triazole]
- LC50 [2]: > 5000 µg/mL

Compound: C=CCN(CC=C)C(=O)n1cnc(SCCN(CC)CC)n1 [1-diallylcarbamoyl-3-(2-diethylaminoethylthio)-1,2,4-triazole]
- LC50 [2]: > 5000 µg/mL

Compound: C=CCN(CC=C)C(=O)n1cnc(SCC(=O)OC)n1 [1-diallylcarbamoyl-3-methoxycarbonylmethylthio-1,2,4-triazole]
- LC50 [2]: > 5000 µg/mL

Compound: CN(C)C(=O)n1cncn1 [1-dimethylcarbamoyl-1,2,4-triazole]
- LC50 [2]: 1250 µg/mL (≈ 8.92 mM)

Compound: Cc1nc(C)n(C(=O)N(C)C)n1 [1-dimethylcarbamoyl-3,5-dimethyl-1,2,4-triazole]
- LC50 [2]: > 5000 µg/mL

Compound: CN(C)C(=O)n1cnc(SSc2ncn(C(=O)N(C)C)n2)n1 [1-dimethylcarbamoyl-3-(1-dimethylcarbamoyl-1,2,4-triazole-3-yldithio)-1,2,4,-triazole]
- LC50 [2]: > 5000 µg/mL

Compound: CN(C)C(=O)n1cnc(Sc2ccc([N+](=O)[O-])cc2[N+](=O)[O-])n1 [1-dimethylcarbamoyl-3-(2,4-dinitrophenylthio)-1,2,4-triazole]
- LC50 [2]: > 5000 µg/mL

Compound: Cc1nc(SCc2ccccc2)nn1C(=O)N(C)C [1-dimethylcarbamoyl-3-benzylthio-5-methyl-1,2,4-triazole]
- LC50 [2]: > 5000 µg/mL

Compound: CN(C)C(=O)n1cnc(Br)n1 [1-dimethylcarbamoyl-3-bromo-1,2,4-triazole]
- LC50 [2]: > 5000 µg/mL

Compound: CN(C)C(=O)n1cnc(Cl)n1 [1-dimethylcarbamoyl-3-chloro-1,2,4-triazole]
- LC50 [2]: > 5000 µg/mL

Compound: CN(C)C(=O)n1cnc(SC2CCCCC2)n1 [1-dimethylcarbamoyl-3-cyclohexylthio-1,2,4-triazole]
- LC50 [2]: > 5000 µg/mL

Compound: CCCCCCCCCCCCSc1ncn(C(=O)N(C)C)n1 [1-dimethylcarbamoyl-3-dodecylthio-1,2,4-triazole]
- LC50 [2]: > 5000 µg/mL

Compound: CCCCCCCCCCCCSc1nc(C)n(C(=O)N(C)C)n1 [1-dimethylcarbamoyl-3-dodecylthio-5-methyl-1,2,4-triazole]
- LC50 [2]: > 5000 µg/mL

Compound: CCOC(=O)CSc1nc(C)n(C(=O)N(C)C)n1 [1-dimethylcarbamoyl-3-ethoxycarbonylmethylthio-5-methyl-1,2,4-triazole]
- LC50 [2]: > 5000 µg/mL

Compound: CCc1nc(SC)n(C(=O)N(C)C)n1 [1-dimethylcarbamoyl-3-ethyl-5-methylthio-1,2,4-triazole]
- LC50 [2]: 1900 µg/mL (≈ 8.87 mM)

Compound: Cc1ncn(C(=O)N(C)C)n1 [1-dimethylcarbamoyl-3-methyl-1,2,4-triazole]
- LC50 [2]: > 5000 µg/mL

Compound: CSc1nc(C)nn1C(=O)N(C)C [1-dimethylcarbamoyl-3-methyl-5-methylthio-1,2,4-triazole]
- LC50 [2]: 2200 µg/mL (≈ 11 mM)

Compound: CSc1ncn(C(=O)N(C)C)n1 [1-dimethylcarbamoyl-3-methylthio-1,2,4-triazole]
- LC50 [2]: 2300 µg/mL (≈ 12.3 mM)

Compound: CCCCCCSc1ncn(C(=O)N(C)C)n1 [1-dimethylcarbamoyl-3-n-hexylthio-1,2,4-triazole]
- LC50 [2]: > 5000 µg/mL

Compound: Cc1nc(Sc2ccc([N+](=O)[O-])cc2)nn1C(=O)N(C)C [1-dimethylcarbamoyl-3-p-nitrophenylthio-5-methyl-1,2,4-triazole]
- LC50 [2]: > 5000 µg/mL

Compound: CSc1nc(-c2ccccc2)nn1C(=O)N(C)C [1-dimethylcarbamoyl-3-phenyl-5-methylthio-1,2,4-triazole]
- LC50 [2]: > 5000 µg/mL

Compound: CCCCCCCCCCCc1nc(SC)n(C(=O)N(C)C)n1 [1-dimethylcarbamoyl-3-undecyl-5-methylthio-1,2,4-triazole]
- LC50 [2]: > 5000 µg/mL

Compound: C#CCSc1nc(C(C)C)nn1C(=O)N(C)C [methyl methyl isopropyl prop-2-ynyl, 1(2)-N,N-dimethylcarbamoyl-3-isopropyl-5-prop-2-ynylthio-1,2,4-triazole]
- ACTIVITY LD50 [2]: 87 p.p.m.
- ACTIVITY LD50 (aphid Megoura viciae): 1.5 p.p.m.
- ACTIVITY LD50 [5]: 31 p.p.m.

Compound: C=C(Br)CSc1nc(C(C)(C)C)nn1C(=O)N(C)C [methyl methyl t-butyl 2-bromoallyl, 1(2)-N,N-dimethylcarbamoyl-3-t-butyl-5-(2-bromoallylthio)-1,2,4-triazole]
- ACTIVITY LD50 (aphid Megoura viciae): 0.66 p.p.m.
- ACTIVITY LD50 [1]: 0.57 p.p.m.

Compound: C=C(Cl)CSc1nc(C(C)(C)C)nn1C(=O)N(C)C [methyl methyl t-butyl 2-chloroallyl, 1(2)-N,N-dimethylcarbamoyl-3-t-butyl-5-(2-chloroallylthio)-1,2,4-triazole]
- ACTIVITY LD50 (aphid Megoura viciae): 1.6 p.p.m.
- ACTIVITY LD50 [1]: 0.22 p.p.m.
